Where a name gives a salt, the structure may show the parent alone.
How the values were obtained:
CDK1/cycA1 = molecular target: T1, CDK1/cycA1 (Homo sapiens, UniProt P06493); test: In vitro kinase assay (PKLight luciferase ATP readout), CDK1; type: biochemical; settings: ATP at Km; read-out: In vitro Kinase Inhibition CDK1 IC50
T1 construct: purchased ProQinase GmbH
Protocol: (§1) Purified recombinant CDK1/cycA1, CDK2/cycA1, CDK4/cycD1, CDK5/p35NCK, CDK6/cycD1, CDK7/CycH/MAT1, and CDK9/CycT1 were purchased from ProQinase GmbH. Kinase assays were performed according to manufacturer's protocols. Rb-CTF (ProQinase GmbH) (cat number: 0040-0000-6) was used as the kinase substrate for CDK1, CDK2, CDK4, and CDK6 kinases. […] A luciferase assay (PKLight assay; Cambrex) was used to determine ATP remaining at the end of the kinase reaction, which provides a measure of kinase activity, according to the manufacturer's protocols.
(§2) Kinase assays were carried out by incubation of increasing amounts of test compound with purified recombinant CDK-Cyclin complex, followed by measurement of free ATP remaining in the reaction using the luciferase assay kit (PKLight, Cambrex) which therefore provided a measure of inhibition for the specific CDK.
(§3) 5 μL of 1× kinase buffer (Cell Signalling Technologies) was mixed with 200 ng CDK1, 200 ng CDK2, 50 ng CDK4, 100 ng CDK5, or 200 ng CDK6 with 5 μg Rb-CTF and 300 ng CDK7 or 200 ng CDK9 with 500 μM RNA Poll II CTD peptide. […] The mixture was incubated at 30° C. for 30 minutes. The reaction is stopped with 20 μL of Stop Solution (provided in the PKLight kit) for 10 minutes at room temperature. Then 40 μL of the luciferase mix was added to the reaction mixture which was incubated for a further 10 minutes at room temperature and measured using the Tecan Infinite 2000 plate reader. GraphPad Prism Software was used to generate standard curve and determine the IC50's for each CDK.

CDK2/cycA1 = molecular target: T2, CDK2/cycA1 (Homo sapiens, UniProt P24941); test: In vitro kinase assay (PKLight luciferase ATP readout), CDK2; type: biochemical; settings: ATP at Km; read-out: In vitro Kinase Inhibition CDK2 IC50
T2 construct: purchased ProQinase GmbH
Protocol: as §1, §2, §3

CDK7/CycH/MAT1 = molecular target: T3, CDK7/CycH/MAT1 (Homo sapiens, UniProt P50613); test: In vitro kinase assay (PKLight luciferase ATP readout), CDK7; type: biochemical; settings: for IC50: ATP at Km, read-out: In vitro Kinase Inhibition CDK7 IC50; for Selectivity CDK1/CDK7: ratio of CDK1 IC50 to CDK7 IC50; for Selectivity CDK2/CDK7: ratio of CDK2 IC50 to CDK7 IC50
T3 construct: purchased ProQinase GmbH
T3 sequence (P50613 whole entry): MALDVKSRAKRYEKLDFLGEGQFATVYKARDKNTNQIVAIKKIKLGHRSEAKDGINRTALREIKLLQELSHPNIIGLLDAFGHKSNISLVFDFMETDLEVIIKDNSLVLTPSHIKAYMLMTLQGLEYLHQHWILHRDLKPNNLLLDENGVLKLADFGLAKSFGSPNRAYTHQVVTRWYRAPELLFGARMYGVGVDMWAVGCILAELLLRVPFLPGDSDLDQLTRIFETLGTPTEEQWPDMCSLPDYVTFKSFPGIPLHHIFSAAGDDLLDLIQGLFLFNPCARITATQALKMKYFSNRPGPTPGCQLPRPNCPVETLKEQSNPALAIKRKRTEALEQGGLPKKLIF
T3 sequence (P51946 whole entry partner): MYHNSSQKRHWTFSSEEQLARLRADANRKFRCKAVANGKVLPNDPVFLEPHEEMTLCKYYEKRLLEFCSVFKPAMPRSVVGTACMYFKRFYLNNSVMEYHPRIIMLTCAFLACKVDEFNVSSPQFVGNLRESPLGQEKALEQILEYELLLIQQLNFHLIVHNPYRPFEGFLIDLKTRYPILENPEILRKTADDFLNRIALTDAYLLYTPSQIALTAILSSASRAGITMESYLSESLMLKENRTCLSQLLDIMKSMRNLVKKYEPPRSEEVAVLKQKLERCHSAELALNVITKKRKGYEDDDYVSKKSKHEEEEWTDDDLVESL
T3 sequence (P51948 whole entry partner): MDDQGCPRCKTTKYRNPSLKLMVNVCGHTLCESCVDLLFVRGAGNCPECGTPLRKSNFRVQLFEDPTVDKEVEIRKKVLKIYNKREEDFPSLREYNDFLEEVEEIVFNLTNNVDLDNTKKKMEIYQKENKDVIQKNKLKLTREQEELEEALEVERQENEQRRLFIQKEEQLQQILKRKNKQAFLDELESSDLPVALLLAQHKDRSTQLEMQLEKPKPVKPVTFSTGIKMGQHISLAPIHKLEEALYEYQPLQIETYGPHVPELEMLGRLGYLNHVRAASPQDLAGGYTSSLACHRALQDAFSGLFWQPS
Protocol: as §1, §2, §3

MCF7 cells = test: Cell growth inhibition assay (sulforhodamine B), MCF7; type: cell-based; settings: Homo sapiens, 72 hours, SRB assay, read-out: Growth Inhibition, GI50 MCF7
Protocol: (§4) All cells were purchased from the American Type Culture Collection (ATCC) and MCF7 cells were routinely cultured in Dulbecco's Modified Eagle's Medium (DMEM) supplemented with 10% fetal calf serum (FCS) (First Link) and HCT116 cells were routinely cultured in Roswell Park Memorial Instititute Medium (RPMI) supplemented with 10% FCS. Cell growth was assessed using a known sulforhodamine B assay (see, e.g., Skehan et al., 1990).
(§5) MCF-7 cells purchased from ATCC (USA) were routinely passaged in DMEM, supplemented with 10% FCS and HCT116 cells purchased from ATCC (USA) were routinely passaged in RPMI supplemented with 10% FCS and kept in a 37° C. incubator with 5% CO2. The growth assay for both cell lines was performed in the appropriate media using the exact same protocol as described here. For the growth assay, 5000 cells were seeded into each well of 96-well plates in DMEM containing 10% FCS. Test compounds prepared in DMSO were added to the medium at concentrations ranging from 0.00038-100 μM. The cells were incubated for a further 72 hours, at which time they were fixed by the addition of 100 μL/well of ice-cold 40% trichloroacetic acid (TCA). The plates were left for 1 hour at 4° C., washed in water and 100 μL of 0.4% (w/v) sulforhodamine (SRB; Sigma-Aldrich, UK) prepared in 1% acetic acid was added. Plates were washed in 1% acetic acid to remove excess SRB reagent, air dried, and bound dye was solubilized by the addition of 100 μL of 10 mM tris base. The plates were read at 492 nm using a plate reader.

HCT116 cells = test: Cell growth inhibition assay (sulforhodamine B), HCT116; type: cell-based; settings: Homo sapiens, HCT-116; 72 hours, SRB assay; read-out: Growth Inhibition, GI50 HCT116
Protocol: as §4, §5

Row | IC50 (CDK1/cycA1) [nM] | IC50 (CDK2/cycA1) [nM] | IC50 (CDK7/CycH/MAT1) [nM] | Selectivity CDK1/CDK7 (CDK7/CycH/MAT1) [fold] | Selectivity CDK2/CDK7 (CDK7/CycH/MAT1) [fold] | GI50 (MCF7 cells) [nM] | GI50 (HCT116 cells) [nM] | SMILES
1 | 1380 | 2030 | 18 | 77 | 113 | 1500 | 5100 | CC(C)c1cnn2c(NCc3ccccc3)cc(NC[C@]3(O)CCNC[C@H]3O)nc12 (racemic) [PPDA-002, (3R,4R)-4-((7-(Benzylamino)-3-iso-propyl-pyrazolo[1,5-a]pyrimidin-5-ylamino)methyl)piperidine-3,4-diol hydrochloride]
2 | 8680 | 481 | 975 | 8.9 | 0.5 | 45600 | 53500 | CC(C)c1cnn2c(NCC3CCCCC3)cc(NC[C@]3(O)CCNC[C@H]3O)nc12 (racemic) [PPDA-014]
3 | 41 | 1 | 14 | 2.9 | 0.1 | 100 | 900 | CC(C)c1cnn2c(NCc3ccccc3)cc(NCC3(CO)CCNC3)nc12 (racemic) [PPDA-018, (3-((7-(Benzylamino)-3-iso-propylpyrazolo [1,5-a]pyrimidin-5ylamino)methyl)pyrrolidin-3-yl)methanol hydrochloride]
4 | 80 | 9 | 29 | 2.8 | 0.3 | 300 | 400 | CC(C)c1cnn2c(NCC3CCCCC3)cc(NC[C@@]3(CO)CCNC3)nc12 (racemic) [PPDA-019]
5 | 441 | 22 | 44 | 10 | 0.5 | 600 | 1500 | CC(C)c1cnn2c(NCc3ccncc3)cc(NC[C@@]3(CO)CCNC3)nc12 (racemic) [PPDA-020]
6 | 177 | 22 | 81 | 2.2 | 0.3 | 200 | 1200 | CC(C)c1cnn2c(NCc3ccccc3Cl)cc(NC[C@@]3(CO)CCNC3)nc12 (racemic) [PPDA-021]
7 | 1820 | 1290 | 940 | 1.9 | 1.4 | 2700 | 2500 | CC(C)c1cnn2c(NCC3CCCCC3)cc(NC[C@H]3CCNC[C@@H]3O)nc12 [PPDA-004]
8 | 213 | 38 | 111 | 1.9 | 0.3 | 4220 | 7200 | CC(C)c1cnn2c(Nc3ccc(S(=O)(=O)N(C)C)cc3)cc(NC[C@H]3CCNC[C@@H]3O)nc12 [PPDA-005]
9 | 405 | 178 | 40 | 10 | 4.5 | 8400 | 10000 | CC(C)c1cnn2c(NC3CCN(S(=O)(=O)c4ccc(F)cc4)CC3)cc(NC[C@H]3CCNC[C@@H]3O)nc12 [PPDA-006]
10 | 1150 | 503 | 461 | 2.5 | 1.1 | 2100 | 4100 | CC(C)c1cnn2c(Nc3ccc(N4CCN(C)CC4)cc3)cc(NC[C@H]3CCNC[C@@H]3O)nc12 [PPDA-007, (3R,4R)-4-((3-iso-Propyl-7-(4-(4-methylpiperazin-1-yl)phenylamino)pyrazolo[1,5-a]pyrimidin-5-ylamino)methyl)piperidin-3-ol hydrochloride]
11 | 559 | 459 | 462 | 1.2 | 1.0 | 38900 | 86600 | CC(C)c1cnn2c(NC(=O)C3CCNCC3)cc(NC[C@H]3CCNC[C@@H]3O)nc12 [PPDA-009, N-(5-((((3R,4R)-3-Hydroxypiperidin-4-yl)methyl)amino)-3-iso-propylpyrazolo[1,5-a]pyrimidin-7-yl)piperidine-4-carboxamide hydrochloride]
12 |  |  |  | 3.7 | 1.4 | 10100 | 23700 | CC(C)c1cnn2c(NCc3ccccc3)cc(NC3CNCC[C@]3(O)CO)nc12 (stereo partly shown) [PPDA-025]
13 | 285 | 106 | 77 |  |  |  |  | CC(C)c1cnn2c(NCc3ccccc3)cc(N[C@@H]3CNCC[C@]3(O)CO)nc12 [PPDA-025]
14 |  | 2840 | 1010 |  | 2.8 | 17600 | > 100000 | CO[C@H]1CN[C@H](CNc2cc(NCc3ccccc3)n3ncc(C(C)C)c3n2)C1 [PPDA-029]
15 |  | 999 | 59 |  | 17 | 20200 | > 100000 | CC(C)c1cnn2c(NCc3ccccc3)cc(NC[C@@H]3C[C@@H](O)CN3)nc12 [PPDA-030]
16 |  | 393 | 473 |  | 0.8 | 5600 | 20400 | CC(C)c1cnn2c(NCc3ccccc3)cc(NC[C@H]3NCC[C@@H]3O)nc12 [PPDA-031]
17 |  | 1500 | 305 |  | 4.9 |  |  | CC(C)c1cnn2c(NCc3ccccc3)cc(NC[C@H]3NC[C@H](O)[C@@H]3O)nc12 [PPDA-032]

Row | SMILES | IC50 (CDK1/cycA1) [nM] | IC50 (CDK2/cycA1) [nM] | IC50 (CDK7/CycH/MAT1) [nM] | Selectivity CDK1/CDK7 (CDK7/CycH/MAT1) [fold] | Selectivity CDK2/CDK7 (CDK7/CycH/MAT1) [fold] | GI50 (MCF7 cells) [nM] | GI50 (HCT116 cells) [nM]
18 | CC(C)c1cnn2c(NCc3ccccc3)cc(N[C@H]3CNCC3O)nc12 (stereo in doubt) [PPDA-015, (3S,4S)-4-(7-(Benzylamino)-3-iso-propyl-pyrazolo[1,5-a]pyrimidin-5-ylamino)-pyrrolidin-3-ol hydrochloride] | 3950 | 1290 | 27 | 146 | 48 | 4100 | 12700
19 | CC(C)c1cnn2c(NCc3ccncc3)cc(NC[C@H]3CCNC[C@@H]3O)nc12 [PPDA-003, (3R,4R)-4-((3-iso-Propyl-7-(pyridin-4-ylmethylamino)pyrazolo[1,5-a]pyrimidin-5-ylamino)methyl)piperidin-3-ol hydrochloride] | 1910 | 114 | 47 | 41 | 2.5 |  | 
20 | CC(C)c1cnn2c(Nc3csc4ccccc34)cc(NC[C@H]3CCNC[C@@H]3O)nc12 [PPDA-008] | 2950 | 42 | 120 | 25 | 0.4 | 3100 | 5100
21 | CC(C)c1cnn2c(NCc3ccccc3)cc(NCC3CCNCC3)nc12 [XX-01, reference compound] |  |  | 310 |  |  | 12200 | 18700
22 | CC(C)c1cnn2c(NCc3ccccc3)cc(NC[C@H]3CCCC[C@@H]3O)nc12 [XX-02, reference compound] |  |  | 687 |  |  | 47000 | > 100000
